Consider 2 compounds from ChEMBL document CHEMBL1127385, “Synthesis and diuretic activity of alkyl- and arylguanidine analogs of N,N'-dicyclohexyl-4-morpholinecarboxamidine in rats and dogs” (J Med Chem, 1994).

In series [1] the test system is Canis familiaris. Nature of the series: Total electrolytic excretion of potassium in urine of dogs after intravenous administration of 2.49 uM/Kg of drug. The series is classed as ADME, organism-based, Canis lupus familiaris. Particulars: dog, in vivo.
Series [2] deals with Rattus norvegicus. Nature of the series: Total electrolytic excretion of chlorine in urine of rats after peroral administration of 249 uM/Kg of drug. The series is classed as ADME, organism-based. The conditions noted are these: in vivo, po.
For series [3], the system named is Rattus norvegicus. As to the kind of experiment: Total electrolytic excretion of chlorine in urine of rats after peroral administration of 74.8 uM/Kg of drug. The series is classed as ADME, organism-based. Particulars: in vivo, po.
The subject of series [4] is Rattus norvegicus. Nature of the series: Total electrolytic excretion of chlorine in urine of rats after peroral administration of 24.9 uM/Kg of drug. The conditions noted are these: in vivo, po. The series is classed as ADME, organism-based.
The test system of series [5] is Canis familiaris. Nature of the series: Total electrolytic excretion of chlorine in urine of dogs after intravenous administration of 2.49 uM/Kg of drug. It is filed as ADME, organism-based, Canis lupus familiaris. The conditions noted are these: dog, in vivo.
Series [6] deals with Canis familiaris. As to the kind of experiment: Total electrolytic excretion of sodium in urine of dogs after intravenous administration of 2.49 uM/Kg of drug. The series is classed as ADME, organism-based, Canis lupus familiaris. Particulars: dog, in vivo.
The test system of series [7] is Rattus norvegicus. As to the kind of experiment: Total electrolytic excretion of potassium in urine of rats after peroral administration of 24.9 uM/Kg of drug. The series is classed as ADME, organism-based. The conditions noted are these: in vivo, po.
Series [8] deals with Rattus norvegicus. As to the kind of experiment: Total electrolytic excretion of potassium in urine of rats after peroral administration of 249 uM/Kg of drug. The series is classed as ADME, organism-based. Particulars: in vivo, po.
Series [9] deals with Rattus norvegicus. Nature of the series: Tested for the diuretic activity by measuring the urinary volume after peroral administering 74.8 uM/Kg of drug in rats. It is filed as ADME, organism-based, Urine. The conditions noted are these: in vivo, po.
Series [10] has as its system Rattus norvegicus. As to the kind of experiment: Total electrolytic excretion of sodium in urine of rats after peroral administration of 24.9 uM/Kg of drug. It is filed as ADME, organism-based. Particulars: in vivo, po.
The subject of series [11] is Rattus norvegicus. Nature of the series: Total electrolytic excretion of sodium in urine of rats after peroral administration of 249 uM/Kg of drug. The series is classed as ADME, organism-based. Particulars: in vivo, po.
Series [12] concerns Rattus norvegicus. As to the kind of experiment: Total electrolytic excretion of sodium in urine of rats after peroral administration of 74.8 uM/Kg of drug. The series is classed as ADME, organism-based. The conditions noted are these: in vivo, po.
Series [13] relates to Rattus norvegicus. As to the kind of experiment: Tested for the diuretic activity by measuring the urinary volume after peroral administering 24.9 uM/Kg of drug in rats. Particulars: in vivo, po. It is filed as ADME, organism-based, Urine.
In series [14] the test system is Canis familiaris. Nature of the series: Tested for the diuretic activity by measuring the urinary volume after intravenous administering 2.49 uM/Kg of drug in dogs. It is filed as ADME, organism-based, Canis lupus familiaris, Urine. Particulars: dog, in vivo.
For series [15], the system named is Rattus norvegicus. Nature of the series: Tested for the diuretic activity by measuring the urinary volume after peroral administering 249 uM/Kg of drug in rats. Particulars: in vivo, po. It is filed as ADME, organism-based, Urine.
The subject of series [16] is Rattus norvegicus. As to the kind of experiment: Ratio of Total electrolytic excretion of sodium and potassium in urine of rats after peroral administration of 24.9 uM/Kg of drug. It is filed as ADME, organism-based. Particulars: in vivo, po.
Series [17] deals with Rattus norvegicus. As to the kind of experiment: Ratio of Total electrolytic excretion of sodium and potassium in urine of rats after peroral administration of 249 uM/Kg of drug. The series is classed as ADME, organism-based. Particulars: in vivo, po.
Series [18] deals with Rattus norvegicus. Nature of the series: Ratio of Total electrolytic excretion of sodium and potassium in urine of rats after intravenous administration of 2.49 uM/Kg of drug. Particulars: in vivo. The series is classed as ADME, organism-based.
Series [19] has as its system Rattus norvegicus. Nature of the series: Ratio of Total electrolytic excretion of sodium and potassium in urine of rats after peroral administration of 74.8 uM/Kg of drug. The series is classed as ADME, organism-based. The conditions noted are these: in vivo, po.
In series [20] the test system is Rattus norvegicus. As to the kind of experiment: Total electrolytic excretion of potassium in urine of rats after peroral administration of 74.8 uM/Kg of drug. It is filed as ADME, organism-based. The conditions noted are these: in vivo, po.
For series [21], the system named is Rattus norvegicus. As to the kind of experiment: Total electrolytic excretion of chlorine in urine of rats after peroral administration of 58.4 uM/Kg of drug. The series is classed as ADME, organism-based. Particulars: in vivo, po.
Series [22] relates to Rattus norvegicus. As to the kind of experiment: Total electrolytic excretion of sodium in urine of rats after peroral administration of 19.5 uM/Kg of drug. The series is classed as ADME, organism-based. The conditions noted are these: in vivo, po.
Series [23] deals with Rattus norvegicus. As to the kind of experiment: Total electrolytic excretion of sodium in urine of rats after peroral administration of 195 uM/Kg of drug. The conditions noted are these: in vivo, po. It is filed as ADME, organism-based.
The subject of series [24] is Rattus norvegicus. As to the kind of experiment: Total electrolytic excretion of potassium in urine of rats after peroral administration of 58.4 uM/Kg of drug. Particulars: in vivo, po. It is filed as ADME, organism-based.
Series [25] concerns Rattus norvegicus. Nature of the series: Total electrolytic excretion of chlorine in urine of rats after peroral administration of 195 uM/Kg of drug. The conditions noted are these: in vivo, po. It is filed as ADME, organism-based.
Series [26] has as its system Rattus norvegicus. Nature of the series: Total electrolytic excretion of potassium in urine of rats after peroral administration of 19.5 uM/Kg of drug. It is filed as ADME, organism-based. The conditions noted are these: in vivo, po.
The test system of series [27] is Rattus norvegicus. Nature of the series: Total electrolytic excretion of potassium in urine of rats after peroral administration of 195 uM/Kg of drug. The series is classed as ADME, organism-based. The conditions noted are these: in vivo, po.
Series [28] relates to Rattus norvegicus. Nature of the series: Ratio of Total electrolytic excretion of sodium and potassium in urine of rats after intravenous administration of 19.5 uM/Kg of drug. The series is classed as ADME, organism-based. The conditions noted are these: in vivo.
Series [29] deals with Rattus norvegicus. Nature of the series: Tested for the diuretic activity by measuring the urinary volume after peroral administering 58.4 uM/Kg of drug in rats. It is filed as ADME, organism-based, Urine. The conditions noted are these: in vivo, po.
For series [30], the system named is Rattus norvegicus. As to the kind of experiment: Total electrolytic excretion of sodium in urine of rats after peroral administration of 58.4 uM/Kg of drug. The series is classed as ADME, organism-based. Particulars: in vivo, po.
For series [31], the system named is Rattus norvegicus. As to the kind of experiment: Tested for the diuretic activity by measuring the urinary volume after peroral administering 19.5 uM/Kg of drug in rats. The series is classed as ADME, organism-based, Urine. Particulars: in vivo, po.
In series [32] the test system is Rattus norvegicus. Nature of the series: Tested for the diuretic activity by measuring the urinary volume after peroral administering 195 uM/Kg of drug in rats. Particulars: in vivo, po. It is filed as ADME, organism-based, Urine.
Series [33] has as its system Rattus norvegicus. Nature of the series: Ratio of Total electrolytic excretion of sodium and potassium in urine of rats after peroral administration of 19.5 uM/Kg of drug. The conditions noted are these: in vivo, po. The series is classed as ADME, organism-based.
Series [34] has as its system Rattus norvegicus. Nature of the series: Ratio of Total electrolytic excretion of sodium and potassium in urine of rats after peroral administration of 195 uM/Kg of drug. The series is classed as ADME, organism-based. The conditions noted are these: in vivo, po.
The test system of series [35] is Rattus norvegicus. Nature of the series: Ratio of Total electrolytic excretion of sodium and potassium in urine of rats after intravenous administration of 5.84 uM/Kg of drug. The series is classed as ADME, organism-based. The conditions noted are these: in vivo.
In series [36] the test system is Rattus norvegicus. As to the kind of experiment: Ratio of Total electrolytic excretion of sodium and potassium in urine of rats after peroral administration of 58.4 uM/Kg of drug. The series is classed as ADME, organism-based. The conditions noted are these: in vivo, po.
Series [37] has as its system Rattus norvegicus. Nature of the series: Total electrolytic excretion of chlorine in urine of rats after peroral administration of 19.5 uM/Kg of drug. It is filed as ADME, organism-based. The conditions noted are these: in vivo, po.

Turning to `CCOC(=O)N1CCN(/C(=N\C2CCCCC2)NC2CCCCC2)CC1`, the “Excretion K+” value was determined as 2 m equiv with Canis familiaris [1], 0.29 m equiv in the series with Rattus norvegicus [7], 0.42 m equiv in the series with Rattus norvegicus [8] and 0.33 m equiv in the series on Rattus norvegicus [20]. Moreover, the “Excretion Cl-” value in the series with Rattus norvegicus [2] was determined as 1.7 m equiv; with Rattus norvegicus [3], 1.38 m equiv; with Rattus norvegicus [4], 0.98 m equiv; in the series on Canis familiaris [5] it was 5.4 m equiv. For the same compound, the “Excretion Na+” value in the series on Canis familiaris [6] came to 8.3 m equiv; in the series with Rattus norvegicus [10], 0.87 m equiv; with Rattus norvegicus [11], 1.67 m equiv; in the series on Rattus norvegicus [12], 1.35 m equiv. The V came to 8.3 mL in the series on Rattus norvegicus [9], 5.3 mL with Rattus norvegicus [13], 51 mL with Canis familiaris [14] and 10.8 mL with Rattus norvegicus [15]. In addition, the Ratio in the series on Rattus norvegicus [16] turned out to be 3; in the series with Rattus norvegicus [17], 4; in the series on Rattus norvegicus [18], 4.8; in the series with Rattus norvegicus [19], 4.1.

Turning to `C1CN(/C(=N\C23CC4CC(CC(C4)C2)C3)NC23CC4CC(CC(C4)C2)C3)CCO1`, the “Excretion Cl-” value with Rattus norvegicus [21] is 1.97 m equiv; in the series on Rattus norvegicus [25], 1.66 m equiv; in the series with Rattus norvegicus [37], 1.52 m equiv. For the same compound, the “Excretion Na+” value worked out at 1.51 m equiv in the series with Rattus norvegicus [22], 1.9 m equiv in the series on Rattus norvegicus [23] and 2.04 m equiv in the series with Rattus norvegicus [30]. Besides, the entries for the “Excretion K+” value in the series on Rattus norvegicus [24], with Rattus norvegicus [26] and in the series on Rattus norvegicus [27] were 0.27 m equiv, 0.23 m equiv and 0.25 m equiv, respectively. The Ratio in the series with Rattus norvegicus [28] is 6.8; in the series on Rattus norvegicus [33] it was 6.6 [Na+]/[K+]; in the series on Rattus norvegicus [34] it was 7.6 [Na+]/[K+]; in the series on Rattus norvegicus [35], 8 [Na+]/[K+]; with Rattus norvegicus [36], 7.5 [Na+]/[K+]. Also, the figures for the V in the series with Rattus norvegicus [29], in the series with Rattus norvegicus [31] and in the series with Rattus norvegicus [32] were 12.8 mL, 10.1 mL and 10.9 mL, respectively.
